Source: patent US20220387608A1, “ADRENOMEDULLIN-ANALOGUES FOR LONG-TERM STABILIZATION AND THEIR USE” (Bayer Aktiengesellschaft, priority 2019, published 2022)
Positions of bridges follow the written chain, without caps; N, C: chain ends. Non-standard residues stand in square brackets, D forms with d. Residues, ends and D or L forms follow the SMILES beside them. *: point of attachment. X1 = CN(C)c1ccc2c(c1)Oc1cc(N(C)C)ccc1C21OC(=O)c2ccc(C(=O)*)cc21; C18 diacid = O=C(O)CCCCCCCCCCCCCCCCC(=O)*; PEG3 = NCCOCCOCCOCCC(=O)O; Dap = NC[C@H](N)C(=O)O

Assay: Stability determination of TAMRA-labelled adrenomedullin analogues in human blood plasma
Type: in vitro ADME
Conditions: 37° C., 10^-5 M, slow-decay phase half-life, read-out: t1/2 (slow) (converted)
Experimental: The stability of the peptides was investigated using fluorescently labeled analogues, which were prepared as described above.
The TAMRA-labeled analogues were dissolved in 1.5 m1 of human blood plasma to a concentration of 10^−5 M and incubated at 37° C. under constant shaking. Samples of 150 μl were taken at different time points and precipitated with 300 μl Ethanol/ACN (1:1) for at least 1 h at −20° C. After centrifugation for 30 s at 12000 rpm, the supernatant was collected and incubated at −20° C. for at least 3 h. Subsequently, it was transferred into Costar® Spin-X® Centrifuge Tube Filters (0.22 μm) and centrifuged for 1 h at 12000 rpm. The samples were analyzed by RP-HPLC using a VariTide RPC column (Agilent Technologies, 250 mm×4.6 mm, […], 200 Å) with linear gradients of 0.1% TFA in water and 0.08% TFA in ACN; fluorescence measurement (λex=525 nm; λem=572 nm) was used for the detection of the analogues and their N-terminal fragments. The percentage of intact peptide was determined by peak integration. The values of peaks containing additional cleavage fragments were corrected by comparing intensities of cleavage fragments and intact peptide using MALDI-MS analysis (UltraflexIII, Bruker). The stability of the peptides was calculated with GraphPad Prism 5 (GraphPad Software) using a two phase exponential decay function for the determination of slow-decay phase half-lives (ln(2)/Kslow; Kslow: rate constant of slow part of exponential decay).

SMILES	half-life
CC[C@H](C)[C@H](NC(=O)[C@H](CCC(N)=O)NC(=O)[C@H](Cc1c[nH]cn1)NC(=O)[C@H](C)NC(=O)[C@H](CC(C)C)NC(=O)[C@H](CCCCN)NC(=O)[C@H](CCC(N)=O)NC(=O)[C@@H](NC(=O)[C@@H](NC(=O)[C@@H]1CCC(=O)NC[C@H](NC(=O)CNC(=O)[C@H](CCCCNC(=O)CCCCCCCCCCCCCCCCC(=O)O)NC(=O)c2ccc3c(c2)C2(OC3=O)c3ccc(N(C)C)cc3Oc3cc(N(C)C)ccc32)C(=O)N[C@@H](CCCNC(=N)N)C(=O)N[C@@H](Cc2ccccc2)C(=O)NCC(=O)N[C@@H]([C@@H](C)O)C(=O)N1)[C@@H](C)O)C(C)C)C(=O)N[C@@H](Cc1ccc(O)cc1)C(=O)N[C@@H](CCC(N)=O)C(=O)N[C@@H](Cc1ccccc1)C(=O)N[C@H](C(=O)N[C@@H](CC(=O)O)C(=O)N[C@@H](CCCCN)C(=O)N[C@@H](CC(=O)O)C(=O)N[C@@H](CCCCN)C(=O)N[C@@H](CC(=O)O)C(=O)N[C@@H](CC(N)=O)C(=O)N[C@H](C(=O)N[C@@H](C)C(=O)N1CCC[C@H]1C(=O)N[C@H]1CCCCNC(=O)C[C@@H](C(=O)N2CCC[C@H]2C(=O)N[C@@H](CCC(N)=O)C(=O)NCC(=O)N[C@@H](Cc2ccc(O)cc2)C(N)=O)NC(=O)[C@H]([C@@H](C)CC)NC(=O)[C@H](CCCCN)NC(=O)[C@H](CO)NC1=O)C(C)C)[C@@H](C)O [TAM-16] (X1-K(C18 diacid)G[Dap]RFGTETVQKLAHQIYQFTDKDKDNVAPKSKIDPQGY-NH2; lactam 3-8, 31-35)	> 144 h
CC[C@H](C)[C@H](NC(=O)[C@H](CCC(N)=O)NC(=O)[C@H](Cc1c[nH]cn1)NC(=O)[C@H](C)NC(=O)[C@H](CC(C)C)NC(=O)[C@H](CCCCN)NC(=O)[C@H](CCC(N)=O)NC(=O)[C@@H](NC(=O)[C@@H](NC(=O)[C@@H]1CSSC[C@H](NC(=O)CNC(=O)[C@H](CCCCNC(=O)CCCCCCCCCCCCCCCCC(=O)O)NC(=O)c2ccc3c(c2)C2(OC3=O)c3ccc(N(C)C)cc3Oc3cc(N(C)C)ccc32)C(=O)N[C@@H](CCCNC(=N)N)C(=O)N[C@@H](Cc2ccccc2)C(=O)NCC(=O)N[C@@H]([C@@H](C)O)C(=O)N1)[C@@H](C)O)C(C)C)C(=O)N[C@@H](Cc1ccc(O)cc1)C(=O)N[C@@H](CCC(N)=O)C(=O)N[C@@H](Cc1ccccc1)C(=O)N[C@H](C(=O)N[C@@H](CC(=O)O)C(=O)N[C@@H](CCCCN)C(=O)N[C@@H](CC(=O)O)C(=O)N[C@@H](CCCCN)C(=O)N[C@@H](CC(=O)O)C(=O)N[C@@H](CC(N)=O)C(=O)N[C@H](C(=O)N[C@@H](C)C(=O)N1CCC[C@H]1C(=O)N[C@@H](CCCNC(=N)N)C(=O)N[C@@H](CO)C(=O)N[C@@H](CCCCN)C(=O)N[C@H](C(=O)N[C@@H](CO)C(=O)N1CCC[C@H]1C(=O)N[C@@H](CCC(N)=O)C(=O)NCC(=O)N[C@@H](Cc1ccc(O)cc1)C(N)=O)[C@@H](C)CC)C(C)C)[C@@H](C)O [TAM-5]	149 h
CC[C@H](C)[C@H](NC(=O)[C@H](CCC(N)=O)NC(=O)[C@H](Cc1c[nH]cn1)NC(=O)[C@H](C)NC(=O)[C@H](CC(C)C)NC(=O)[C@H](CCCCN)NC(=O)[C@H](CCC(N)=O)NC(=O)[C@@H](NC(=O)[C@@H](NC(=O)[C@@H]1CSSC[C@H](NC(=O)CNC(=O)[C@H](CCCCNC(=O)CCCCCCCCCCCCCCCCC(=O)O)NC(=O)c2ccc3c(c2)C2(OC3=O)c3ccc(N(C)C)cc3Oc3cc(N(C)C)ccc32)C(=O)N[C@@H](CCCNC(=N)N)C(=O)N[C@@H](Cc2ccccc2)C(=O)NCC(=O)N[C@@H]([C@@H](C)O)C(=O)N1)[C@@H](C)O)C(C)C)C(=O)N[C@@H](Cc1ccc(O)cc1)C(=O)N[C@@H](CCC(N)=O)C(=O)N[C@@H](Cc1ccccc1)C(=O)N[C@H](C(=O)N[C@@H](CC(=O)O)C(=O)N[C@@H](CCCCN)C(=O)N[C@@H](CC(=O)O)C(=O)N[C@@H](CCCCN)C(=O)N[C@@H](CC(=O)O)C(=O)N[C@@H](CC(N)=O)C(=O)N[C@H](C(=O)N[C@@H](C)C(=O)N1CCC[C@H]1C(=O)N[C@H]1CCCCNC(=O)C[C@@H](C(=O)N2CCC[C@H]2C(=O)N[C@@H](CCC(N)=O)C(=O)NCC(=O)N[C@@H](Cc2ccc(O)cc2)C(N)=O)NC(=O)[C@H]([C@@H](C)CC)NC(=O)[C@H](CCCCN)NC(=O)[C@H](CO)NC1=O)C(C)C)[C@@H](C)O [TAM-13] (X1-K(C18 diacid)GCRFGTCTVQKLAHQIYQFTDKDKDNVAPKSKIDPQGY-NH2; disulfide 3-8; lactam 31-35)	> 144 h
CC[C@H](C)[C@H](NC(=O)[C@H](CCC(N)=O)NC(=O)[C@H](Cc1c[nH]cn1)NC(=O)[C@H](C)NC(=O)[C@H](CC(C)C)NC(=O)[C@H](CCCCN)NC(=O)[C@H](CCC(N)=O)NC(=O)[C@@H](NC(=O)[C@@H](NC(=O)[C@@H]1CCC(=O)NC[C@H](NC(=O)CNC(=O)[C@H](CCCCNC(=O)CCCCCCCCCCCCCCCCC(=O)O)NC(=O)c2ccc3c(c2)C2(OC3=O)c3ccc(N(C)C)cc3Oc3cc(N(C)C)ccc32)C(=O)N[C@@H](CCCNC(=N)N)C(=O)N[C@@H](Cc2ccccc2)C(=O)NCC(=O)N[C@@H]([C@@H](C)O)C(=O)N1)[C@@H](C)O)C(C)C)C(=O)N[C@@H](Cc1ccc(O)cc1)C(=O)N[C@@H](CCC(N)=O)C(=O)N[C@@H](Cc1ccccc1)C(=O)N[C@H](C(=O)N[C@@H](CC(=O)O)C(=O)N[C@@H](CCCCN)C(=O)N[C@@H](CC(=O)O)C(=O)N[C@@H](CCCCN)C(=O)N[C@@H](CC(=O)O)C(=O)N[C@@H](CC(N)=O)C(=O)N[C@H](C(=O)N[C@@H](C)C(=O)N1CCC[C@H]1C(=O)N[C@@H](CCCNC(=N)N)C(=O)N[C@@H](CO)C(=O)N[C@@H](CCCCN)C(=O)N[C@H](C(=O)N[C@@H](CO)C(=O)N1CCC[C@H]1C(=O)N[C@@H](CCC(N)=O)C(=O)NCC(=O)N[C@@H](Cc1ccc(O)cc1)C(N)=O)[C@@H](C)CC)C(C)C)[C@@H](C)O [TAM-15] (X1-K(C18 diacid)G[Dap]RFGTETVQKLAHQIYQFTDKDKDNVAPRSKISPQGY-NH2; lactam 3-8)	> 144 h

More lines, now with the values ahead:

half-life	SMILES
12 h	CC[C@H](C)[C@H](NC(=O)[C@H](CCC(N)=O)NC(=O)[C@H](Cc1c[nH]cn1)NC(=O)[C@H](C)NC(=O)[C@H](CC(C)C)NC(=O)[C@H](CCCCN)NC(=O)[C@H](CCC(N)=O)NC(=O)[C@@H](NC(=O)[C@@H](NC(=O)[C@@H]1CSSC[C@H](NC(=O)CNC(=O)CNC(=O)c2ccc3c(c2)C2(OC3=O)c3ccc(N(C)C)cc3Oc3cc(N(C)C)ccc32)C(=O)N[C@@H](CCCNC(=N)N)C(=O)N[C@@H](Cc2ccccc2)C(=O)NCC(=O)N[C@@H]([C@@H](C)O)C(=O)N1)[C@@H](C)O)C(C)C)C(=O)N[C@@H](Cc1ccc(O)cc1)C(=O)N[C@@H](CCC(N)=O)C(=O)N[C@@H](Cc1ccccc1)C(=O)N[C@H](C(=O)N[C@@H](CC(=O)O)C(=O)N[C@@H](CCCCN)C(=O)N[C@@H](CC(=O)O)C(=O)N[C@@H](CCCCN)C(=O)N[C@@H](CC(=O)O)C(=O)N[C@@H](CC(N)=O)C(=O)N[C@H](C(=O)N[C@@H](C)C(=O)N1CCC[C@H]1C(=O)N[C@@H](CCCNC(=N)N)C(=O)N[C@@H](CO)C(=O)N[C@@H](CCCCN)C(=O)N[C@H](C(=O)N[C@@H](CO)C(=O)N1CCC[C@H]1C(=O)N[C@@H](CCC(N)=O)C(=O)NCC(=O)N[C@@H](Cc1ccc(O)cc1)C(N)=O)[C@@H](C)CC)C(C)C)[C@@H](C)O [TAM-control, reference compound]
> 144 h	CC[C@H](C)[C@H](NC(=O)[C@H](CCC(N)=O)NC(=O)[C@H](Cc1c[nH]cn1)NC(=O)[C@H](C)NC(=O)[C@H](CC(C)C)NC(=O)[C@H](CCCCN)NC(=O)[C@H](CCC(N)=O)NC(=O)[C@@H](NC(=O)[C@@H](NC(=O)[C@@H]1CCC(=O)NC[C@H](NC(=O)CNC(=O)[C@H](CCCCNC(=O)CCCCCCCCCCCCCCCCC(=O)O)NC(=O)c2ccc3c(c2)C2(OC3=O)c3ccc(N(C)C)cc3Oc3cc(N(C)C)ccc32)C(=O)N[C@@H](CCCNC(=N)N)C(=O)N[C@@H](Cc2ccccc2)C(=O)NCC(=O)N[C@@H]([C@@H](C)O)C(=O)N1)[C@@H](C)O)C(C)C)C(=O)N[C@@H](Cc1ccc(O)cc1)C(=O)N[C@@H](CCC(N)=O)C(=O)N[C@@H](Cc1ccccc1)C(=O)N[C@H](C(=O)NCCOCCOCCOCCC(=O)N[C@@H](CC(=O)O)C(=O)N[C@@H](CC(N)=O)C(=O)N[C@H](C(=O)N[C@@H](C)C(=O)N1CCC[C@H]1C(=O)N[C@H]1CCCCNC(=O)C[C@@H](C(=O)N2CCC[C@H]2C(=O)N[C@@H](CCC(N)=O)C(=O)NCC(=O)N[C@@H](Cc2ccc(O)cc2)C(N)=O)NC(=O)[C@H]([C@@H](C)CC)NC(=O)[C@H](CCCCN)NC(=O)[C@H](CO)NC1=O)C(C)C)[C@@H](C)O [TAM-17] (X1-K(C18 diacid)G[Dap]RFGTETVQKLAHQIYQFT[PEG3]DNVAPKSKIDPQGY-NH2; lactam 3-8, 28-32)
